The results in this text go back to patent US6617118B2, “Monoclonal antibody for analysis and clearance of polyethylene glycol and polyethylene glycol-modified molecules” (priority 1999, dated 2003).

One series deals with LS174T cells. Nature of the series: Drug sensitivity of LS174T cells ([3H]-leucine incorporation). The note with it: BHAMG plus 1 μg/well βG, 24 h.
The test system of another series is LS174T tumor xenografts. Briefly: Therapy of LS174T tumor xenografts. How it is done:
Therapy of LS174T Tumor Xenografts: Groups of 9 BALB/c nu/nu mice were s.c. injected on the right flank with 5×10^6 LS174T cells on day 1. […] 48 and 50 h later mice were i.v. injected with 2 sequential doses of 300 and 200 μg AGP3. […] Therapy was repeated starting on days 16, 26, and 41. All mice received 2-4 rounds of therapy. Tumor volumes (length×width×height×0.5) were measured twice a week and mice weight was followed as an estimate of treatment toxicity. […] Groups of 8 BALB/c nu/nu mice bearing larger 200-250 mm^3 tumors were also treated as above with 2 rounds of therapy starting on days 11 and 23.
Therapy was repeated starting on days 16, 26 and 41. […] Bars indicate the standard error of the mean. […] Soluble IgM immune complexes are primarily removed from the circulation and catabolized by the mononuclear phagocyte system in the liver, spleen and lungs by receptor-mediated binding of high mannose oligosaccharides exposed upon conformational changes in IgM induced by antigen binding (Day et al., 1980).

The nature of series [1]: Toxicity of clearance and BHAMG prodrug administration. Format: in vivo, BALB/c mice. The note with it: AGP3 and 15 mg/kg BHAMG, no βG-sPEG. How it is done:
Toxicity of Clearance: The numbers of WBC, RBC, and PLT in groups of 6 BALB/c mice were measured as described (Chen et al., 1997) 1 day before i.v. injection of 50 μg of βG-PEG or PBS. […] On day 8, the numbers of WBC, RBC, and PLT in […] samples were determined. On days 3 and 10, the spleen, liver and kidney were removed from one mouse in each group and fixed in 10% formalin. Ethanol dehydrated samples were embedded in paraffin and cut into 3 μm sections. Sections were then dewaxed with xylene, stained with hematoxylin/eosin, and dehydrated before observation under a light microscope. The weight of mice was followed for 18 days.
One concern of employing IgM to clear proteins is that the immune complexes could be deposited in organs and cause tissue damage. In addition, deposition of βG-PEG on the surface of cells could result in prodrug activation and tissue toxicity. […] Mice were injected with PBS (A-C) or βG-sPEG (D-F) on day 1. […] Tissue sections of liver (A, D), kidney (B, E), and spleen (C, F) recovered 10 days later were stained with hematoxylin and eosin. […] Similarly, no tissue damage was observed 3 days after prodrug administration (results not shown).
Groups of 4 mice were i.v. injected at time zero with PBS (control) or βG-sPEG. […] Six hours later, all mice were i.v. injected with BHAMG. […]

Description for LS174T cells: Drug sensitivity of LS174T cells: LS174T cells were plated overnight in 96 well microtiter plates at 40,000 cells per well. […] Cells were subsequently washed once with sterile PBS, incubated until hour 48 in fresh leucine-free medium and then pulsed for 12 h with [^3H]-leucine (1 μCi/well) in fresh medium and harvested with a Filter-mate (Packard). Incorporated radioactivity was determined on a Top-Count scintillation counter (Packard). Results are expressed as percentage inhibition of [^3H]-leucine incorporation compared with untreated cells (control) by the following formula: [formula]
The cellular protein synthesis rate of drug-treated cells is compared to untreated control cells. Bars indicate the standard error of triplicate determinations.

Turning to `O=C(O)[C@H]1O[C@@H](Oc2ccc(N(CCCl)CCCl)cc2)[C@H](O)[C@@H](O)[C@@H]1O` [BHAMG], in the series with LS174T cells, the “cytotoxic effect with simultaneous addition of βG” value is “cytotoxic effect equal to pHAM alone”. Moreover, the Weight loss % with LS174T tumor xenografts (Round of therapy 1) stood at 1.7%; in the series with LS174T tumor xenografts (Round of therapy 2), 4.0%; with LS174T tumor xenografts (Round of therapy 3), 1.7%. Also, the “weight of mice, control group” value in series [1] is “only a small transient decrease”.
